Experimental data as given in paper PMC7417534, “Cytochrome P450 inhibition potential and initial genotoxic evaluation of 14-O-[(4,6-diaminopyrimidine-2-yl)thioacetyl] mutilin” (Scientific Reports, 2020).
Like-named read-outs stand apart in the source and are kept apart here.

Legend:
S. typhimurium TA97 = experiment: Ames test, strain TA97; assay type: cell-based, Salmonella typhimurium; conditions: − S9; positive control, 10 μg/plate
From the text: (§1) S. typhimurium strains TA97, TA98, TA100, TA102 and TA1535 were stored and maintained as provided in the standard protocol. Each of the strains was checked for their genetic integrity prior to the experiment, and tested for biotin dependence, histidine dependence, biotin and histidine dependence, rfa marker (crystal violet) and presence of the plasmid pKM101 (ampicillin resistance) or pAQ1 (tetracycline resistance). Different strains were used to identify different types of mutations.
(§2) The test was carried out at five different concentrations of DPTM. […] Then 1 mL solution was diluted with distilled water by two fold. […] The negative control used in this experiment was 1 mL DMSO which was directly incorporated into 9 mL melted top agar.
(§3) The Ames test of DPTM was conducted as described in the literatures[42],[43] with some modifications. Briefly, 1 mL of strain was inoculated into 5 mL of nutrient broth, followed by incubating overnight at 37 °C. The mixture comprised respective strains, drug, negative and positive controls with the S9 for testing in the presence of metabolic activation system. For testing without S9, 1 × phosphate buffer saline (PBS, pH 7.4) replaced the S9 mix. The obtained mixtures were added into the tube, mixed well and incubated at 37 °C for 20 min. Then, the top agar was melted and 2 mL of this melted top agar was added to each tube and gently mixed. […] The results were expressed as the number of revertant colonies per plate. The experiments were performed in triplicate.

S. typhimurium TA100 = conditions: − S9; positive control, 5 μg/plate
From the text: as §1, §2, §3

S. typhimurium TA1535 = conditions: − S9; positive control, 5 μg/plate
From the text: as §1, §2, §3

CYP3A4 = conditions: cited from earlier work

## Nc1ccc([N+](=O)[O-])cc1N [4-nitro-o-phenylenediamine, reference compound]
S. typhimurium TA97
  revertant colonies per plate, TA97: 803 ± 37 CFU

## [N-]=[N+]=[N-].[Na+] [sodium azide, reference compound]
S. typhimurium TA100
  revertant colonies per plate, TA100: 984 ± 59 CFU
S. typhimurium TA1535
  revertant colonies per plate, TA1535: 774 ± 20 CFU

## C=C[C@]1(C)C[C@@H](OC(=O)CSc2nc3ccc(N)cc3[nH]2)[C@]2(C)[C@H](C)CC[C@]3(CCC(=O)[C@H]32)[C@@H](C)[C@@H]1O [14-O-((5-Amino-benzimidazole-2-yl)thioacetyl) mutilin]
CYP3A4; read-out: IC50 value, CYP3A4 inhibition
  IC50: 1690 nM

## C=C[C@]1(C)C[C@@H](OC(=O)CS[C@@H]2CC[C@@H](N)C[C@H]2O)[C@]2(C)[C@H](C)CC[C@]3(CCC(=O)[C@H]32)[C@@H](C)[C@@H]1O [Lefamulin]
CYP3A4; read-out: IC50, inhibition for CYP3A4
  IC50: < 5000 nM
